Results published in ChEMBL document CHEMBL1145498, “A systematic interaction map of validated kinase inhibitors with Ser/Thr kinases” (Proc Natl Acad Sci U S A, 2007).

Key:
[1] = biological target: Dual specificity protein kinase CLK2 (Homo sapiens) (UniProt P49760)
[2] = biological target: Serine/threonine-protein kinase 26 (Homo sapiens) (UniProt Q9P289)
[3] = biological target: T1, Serine/threonine-protein kinase PLK4 (Homo sapiens) (UniProt O00444)
T1 sequence (whole entry): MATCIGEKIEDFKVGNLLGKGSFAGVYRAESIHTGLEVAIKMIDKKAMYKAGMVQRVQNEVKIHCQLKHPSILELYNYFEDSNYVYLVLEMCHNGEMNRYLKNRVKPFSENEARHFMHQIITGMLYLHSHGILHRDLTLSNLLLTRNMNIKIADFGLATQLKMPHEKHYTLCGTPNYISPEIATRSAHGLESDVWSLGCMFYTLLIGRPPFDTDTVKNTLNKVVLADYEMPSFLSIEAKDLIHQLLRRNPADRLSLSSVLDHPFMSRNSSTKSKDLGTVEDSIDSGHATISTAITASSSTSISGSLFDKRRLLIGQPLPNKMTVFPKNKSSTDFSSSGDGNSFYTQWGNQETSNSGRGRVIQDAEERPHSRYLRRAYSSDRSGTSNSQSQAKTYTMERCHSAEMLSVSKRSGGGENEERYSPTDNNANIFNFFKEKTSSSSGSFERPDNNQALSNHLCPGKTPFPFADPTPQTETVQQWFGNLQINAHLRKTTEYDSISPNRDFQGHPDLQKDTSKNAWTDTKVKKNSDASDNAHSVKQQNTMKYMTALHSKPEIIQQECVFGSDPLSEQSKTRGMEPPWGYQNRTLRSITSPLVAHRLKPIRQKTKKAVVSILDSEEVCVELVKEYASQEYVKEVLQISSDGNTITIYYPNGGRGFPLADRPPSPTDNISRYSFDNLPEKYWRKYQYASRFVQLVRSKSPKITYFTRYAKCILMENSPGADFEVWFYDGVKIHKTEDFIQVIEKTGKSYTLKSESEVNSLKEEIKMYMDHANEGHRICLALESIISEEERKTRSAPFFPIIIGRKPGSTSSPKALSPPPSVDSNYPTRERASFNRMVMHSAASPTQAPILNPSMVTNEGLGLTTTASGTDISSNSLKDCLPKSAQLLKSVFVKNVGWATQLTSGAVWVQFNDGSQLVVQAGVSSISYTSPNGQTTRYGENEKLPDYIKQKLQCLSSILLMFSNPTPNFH

[4] = biological target: T2, Myotonin-protein kinase (Homo sapiens) (UniProt Q09013)
T2 sequence (whole entry): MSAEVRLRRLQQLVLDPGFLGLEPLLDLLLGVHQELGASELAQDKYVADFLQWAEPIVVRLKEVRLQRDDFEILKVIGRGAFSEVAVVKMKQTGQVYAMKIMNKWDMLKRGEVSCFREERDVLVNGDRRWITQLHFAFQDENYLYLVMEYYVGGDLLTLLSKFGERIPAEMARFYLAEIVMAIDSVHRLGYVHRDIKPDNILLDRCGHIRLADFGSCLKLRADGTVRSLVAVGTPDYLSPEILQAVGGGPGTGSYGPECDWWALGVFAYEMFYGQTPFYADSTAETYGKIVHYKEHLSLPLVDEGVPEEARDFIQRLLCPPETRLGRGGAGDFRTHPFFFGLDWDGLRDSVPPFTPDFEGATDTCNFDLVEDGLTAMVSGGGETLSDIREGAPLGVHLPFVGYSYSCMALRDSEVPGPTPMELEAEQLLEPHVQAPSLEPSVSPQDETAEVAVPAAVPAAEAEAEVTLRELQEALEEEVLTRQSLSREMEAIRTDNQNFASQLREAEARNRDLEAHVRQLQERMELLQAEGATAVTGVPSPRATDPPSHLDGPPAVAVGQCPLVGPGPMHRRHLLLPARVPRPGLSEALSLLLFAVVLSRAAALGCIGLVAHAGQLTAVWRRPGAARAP

[5] = biological target: T3, 3-phosphoinositide-dependent protein kinase 1 (Homo sapiens) (UniProt O15530)
T3 sequence (whole entry): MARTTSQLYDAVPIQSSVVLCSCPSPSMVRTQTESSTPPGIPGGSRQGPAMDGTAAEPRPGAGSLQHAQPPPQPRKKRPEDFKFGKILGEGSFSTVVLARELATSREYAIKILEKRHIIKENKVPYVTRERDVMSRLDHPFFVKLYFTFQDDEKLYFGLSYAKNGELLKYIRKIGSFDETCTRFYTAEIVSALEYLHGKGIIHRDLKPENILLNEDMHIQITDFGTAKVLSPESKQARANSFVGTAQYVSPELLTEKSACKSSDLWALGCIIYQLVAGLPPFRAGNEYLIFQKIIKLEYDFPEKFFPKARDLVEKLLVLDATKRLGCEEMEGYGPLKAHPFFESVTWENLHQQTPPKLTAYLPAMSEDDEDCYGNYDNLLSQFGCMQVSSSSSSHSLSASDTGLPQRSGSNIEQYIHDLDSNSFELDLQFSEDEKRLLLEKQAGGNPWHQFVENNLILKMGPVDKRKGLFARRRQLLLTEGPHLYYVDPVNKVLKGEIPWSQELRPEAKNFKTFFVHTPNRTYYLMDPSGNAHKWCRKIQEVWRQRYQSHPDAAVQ

[6] = biological target: Serine/threonine-protein kinase Nek6 (Homo sapiens) (UniProt Q9HC98)
[7] = biological target: Serine/threonine-protein kinase VRK2 (Homo sapiens) (UniProt Q86Y07)
[8] = biological target: Serine/threonine-protein kinase PAK 6 (Homo sapiens) (UniProt Q9NQU5)
[9] = biological target: Mitogen-activated protein kinase 11 (Homo sapiens, UniProt Q15759)
[10] = biological target: cAMP-dependent protein kinase catalytic subunit alpha (Homo sapiens) (UniProt P17612)
[11] = biological target: T4, Serine/threonine-protein kinase 17A (Homo sapiens) (UniProt Q9UEE5)
T4 sequence (whole entry): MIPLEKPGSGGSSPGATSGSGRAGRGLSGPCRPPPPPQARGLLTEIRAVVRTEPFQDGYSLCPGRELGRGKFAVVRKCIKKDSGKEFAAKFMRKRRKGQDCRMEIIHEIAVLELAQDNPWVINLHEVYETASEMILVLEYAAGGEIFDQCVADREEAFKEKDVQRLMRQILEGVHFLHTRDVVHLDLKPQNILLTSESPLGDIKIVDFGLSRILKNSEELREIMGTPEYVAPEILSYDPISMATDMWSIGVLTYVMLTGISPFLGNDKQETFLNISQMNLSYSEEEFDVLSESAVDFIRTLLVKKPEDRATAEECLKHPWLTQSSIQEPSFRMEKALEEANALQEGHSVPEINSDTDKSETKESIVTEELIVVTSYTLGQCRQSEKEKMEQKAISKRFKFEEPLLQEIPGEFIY

Sequence of Serine/threonine-protein kinase 26 (Homo sapiens) (Q9P289 2-416 limits assumed): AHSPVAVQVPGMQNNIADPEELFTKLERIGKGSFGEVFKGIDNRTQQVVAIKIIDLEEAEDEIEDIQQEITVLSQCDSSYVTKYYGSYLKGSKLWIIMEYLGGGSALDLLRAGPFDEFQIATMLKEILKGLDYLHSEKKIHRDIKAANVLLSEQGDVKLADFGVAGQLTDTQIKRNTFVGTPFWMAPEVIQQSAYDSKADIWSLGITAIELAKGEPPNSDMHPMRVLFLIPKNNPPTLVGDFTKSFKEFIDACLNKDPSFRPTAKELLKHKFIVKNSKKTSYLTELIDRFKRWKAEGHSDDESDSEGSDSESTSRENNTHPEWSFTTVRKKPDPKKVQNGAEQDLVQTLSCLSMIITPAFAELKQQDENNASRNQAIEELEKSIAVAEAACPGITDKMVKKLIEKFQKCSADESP
Sequence of Serine/threonine-protein kinase VRK2 (Homo sapiens) (Q86Y07 whole entry): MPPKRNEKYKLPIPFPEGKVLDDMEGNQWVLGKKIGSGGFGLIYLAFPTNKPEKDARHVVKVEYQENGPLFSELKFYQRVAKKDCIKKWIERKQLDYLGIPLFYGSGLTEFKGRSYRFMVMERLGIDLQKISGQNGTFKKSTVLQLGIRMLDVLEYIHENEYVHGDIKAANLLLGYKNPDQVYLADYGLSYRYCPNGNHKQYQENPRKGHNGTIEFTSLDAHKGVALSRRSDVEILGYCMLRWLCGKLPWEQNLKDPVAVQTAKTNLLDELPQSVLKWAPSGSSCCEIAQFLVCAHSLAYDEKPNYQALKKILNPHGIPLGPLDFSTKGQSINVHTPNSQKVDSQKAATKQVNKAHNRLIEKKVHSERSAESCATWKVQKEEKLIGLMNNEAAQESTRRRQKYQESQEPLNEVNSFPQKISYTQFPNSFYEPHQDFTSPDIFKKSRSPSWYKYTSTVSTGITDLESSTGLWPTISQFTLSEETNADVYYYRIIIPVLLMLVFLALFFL
Sequence of Serine/threonine-protein kinase Nek6 (Homo sapiens) (Q9HC98 whole entry): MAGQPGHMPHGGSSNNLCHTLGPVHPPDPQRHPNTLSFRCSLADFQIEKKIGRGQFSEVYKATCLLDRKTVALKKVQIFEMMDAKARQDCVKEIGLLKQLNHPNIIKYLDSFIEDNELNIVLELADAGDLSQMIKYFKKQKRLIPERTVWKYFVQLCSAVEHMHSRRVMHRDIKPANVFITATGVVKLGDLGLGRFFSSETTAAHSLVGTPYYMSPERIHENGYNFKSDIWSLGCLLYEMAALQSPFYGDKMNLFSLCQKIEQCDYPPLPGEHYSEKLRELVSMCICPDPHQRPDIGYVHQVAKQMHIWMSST
Sequence of Dual specificity protein kinase CLK2 (Homo sapiens) (P49760 whole entry, looked up): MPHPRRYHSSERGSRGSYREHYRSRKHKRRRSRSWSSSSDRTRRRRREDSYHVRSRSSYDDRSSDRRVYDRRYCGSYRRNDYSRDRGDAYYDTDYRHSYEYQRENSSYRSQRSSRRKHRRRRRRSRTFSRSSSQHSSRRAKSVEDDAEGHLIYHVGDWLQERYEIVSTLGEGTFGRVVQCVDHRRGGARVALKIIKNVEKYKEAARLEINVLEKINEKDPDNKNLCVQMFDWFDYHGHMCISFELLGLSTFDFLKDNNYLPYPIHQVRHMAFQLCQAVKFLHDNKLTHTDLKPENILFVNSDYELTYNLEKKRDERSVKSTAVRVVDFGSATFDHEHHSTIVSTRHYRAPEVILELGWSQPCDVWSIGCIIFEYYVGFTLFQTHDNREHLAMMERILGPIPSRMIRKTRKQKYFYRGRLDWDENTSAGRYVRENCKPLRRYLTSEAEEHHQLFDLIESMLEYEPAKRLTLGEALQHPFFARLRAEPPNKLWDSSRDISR
Sequence of Mitogen-activated protein kinase 11 (Q15759 whole entry): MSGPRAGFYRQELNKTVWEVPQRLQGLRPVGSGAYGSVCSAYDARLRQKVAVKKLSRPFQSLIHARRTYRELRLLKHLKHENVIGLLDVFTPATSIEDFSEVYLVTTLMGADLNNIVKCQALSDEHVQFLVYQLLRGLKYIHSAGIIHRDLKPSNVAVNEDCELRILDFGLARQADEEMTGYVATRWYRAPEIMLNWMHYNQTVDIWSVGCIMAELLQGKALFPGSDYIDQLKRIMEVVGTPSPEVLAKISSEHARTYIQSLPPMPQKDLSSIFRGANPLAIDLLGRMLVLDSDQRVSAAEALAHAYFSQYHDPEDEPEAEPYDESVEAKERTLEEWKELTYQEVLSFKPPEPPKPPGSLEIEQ
Sequence of Serine/threonine-protein kinase PAK 6 (Homo sapiens) (Q9NQU5 whole entry, looked up): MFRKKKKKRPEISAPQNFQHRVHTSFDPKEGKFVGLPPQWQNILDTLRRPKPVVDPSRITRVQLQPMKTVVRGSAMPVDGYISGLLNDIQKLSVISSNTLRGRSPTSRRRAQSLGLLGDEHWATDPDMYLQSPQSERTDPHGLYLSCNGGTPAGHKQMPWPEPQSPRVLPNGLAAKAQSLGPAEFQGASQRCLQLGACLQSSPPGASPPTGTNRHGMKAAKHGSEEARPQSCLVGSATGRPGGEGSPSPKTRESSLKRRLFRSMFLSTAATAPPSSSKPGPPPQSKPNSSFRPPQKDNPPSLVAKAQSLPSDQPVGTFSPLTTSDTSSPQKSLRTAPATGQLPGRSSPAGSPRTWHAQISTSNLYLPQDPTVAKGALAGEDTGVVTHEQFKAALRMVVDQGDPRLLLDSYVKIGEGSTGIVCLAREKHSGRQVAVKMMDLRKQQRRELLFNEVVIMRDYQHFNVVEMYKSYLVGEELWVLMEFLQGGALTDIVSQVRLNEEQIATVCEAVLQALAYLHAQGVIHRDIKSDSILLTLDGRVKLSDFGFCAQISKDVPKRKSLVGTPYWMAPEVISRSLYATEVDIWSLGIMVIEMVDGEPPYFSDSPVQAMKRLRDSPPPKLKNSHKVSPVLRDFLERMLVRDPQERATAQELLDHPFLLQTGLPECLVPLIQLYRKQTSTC

| Compound | ΔTm [1] | ΔTm [2] | ΔTm [3] | ΔTm [4] | ΔTm [5] | ΔTm [6] | ΔTm [7] | ΔTm [8] | ΔTm [9] | ΔTm [10] | ΔTm [11] |
| --- | --- | --- | --- | --- | --- | --- | --- | --- | --- | --- | --- |
| O=C1Nc2ccccc2/C1=C\c1ccc[nH]1 | 2.1 °C | 3.9 °C | 6 °C | -0.6 °C | 0.9 °C | 0 °C | 3.4 °C | 1.6 °C | 0.3 °C | 1.7 °C | 11 °C |
| C[S+]([O-])c1ccc(-c2nc(-c3ccc(F)cc3)c(-c3ccncc3)[nH]2)cc1 (stereo not drawn) [SB-203580] | 0.2 °C | -0.4 °C | 0.7 °C | 0.1 °C | -0.1 °C | 0.2 °C | 0.6 °C | 0 °C | 9.6 °C | 0 °C | 0 °C |
| CCN1/C(=C/C(C)=O)Sc2ccc(OC)cc21 | 4.1 °C | 0.7 °C | -0.2 °C | 2.5 °C | 0.2 °C | -1 °C | 0.4 °C | -0.9 °C | -0.1 °C | -0.5 °C | 0.4 °C |
| N#CCCc1ccc2c(c1)-c1[nH]c3ccc([N+](=O)[O-])cc3c1CC(=O)N2 [ALSTERPAULLONE 2] | 1.4 °C | 2.8 °C | 10.3 °C | 4.8 °C | -0.4 °C | 0.8 °C | 0.7 °C | 2.3 °C | 0.5 °C | 1.1 °C | 9.6 °C |
| O=c1c2ccccc2[nH]c(=S)n1CCN1CCC(=C(c2ccc(F)cc2)c2ccc(F)cc2)CC1 [DIACYLGLYCEROL KINASE INHIBITOR II] | 0.3 °C | 2.1 °C | 0.8 °C | -0.7 °C | 0.6 °C | 0.1 °C | -0.2 °C | -0.1 °C | 1.2 °C | 0.8 °C | 0.5 °C |
| O=C1NC(=O)c2c1c1c3ccccc3[nH]c1n1cncc21 [ISOGRANULATIMIDE] | 4.1 °C | 5.4 °C | 3.2 °C | 2.2 °C | 1.9 °C | 1.5 °C | 2 °C | -0.5 °C | 2 °C | 5.9 °C | 1.3 °C |
| COc1cc(/C=C/C(=O)CC(=O)/C=C/c2ccc(O)c(OC)c2)ccc1O [CURCUMIN] | 2.6 °C | 2.9 °C | 3.3 °C | 1.5 °C | 0.2 °C | 0.9 °C | 1.4 °C | 1.6 °C | 3.7 °C | 3.4 °C | 7.4 °C |
| COc1ccc(CNc2nc(N(CCO)CCO)nc3c2ncn3C(C)C)cc1 | 2.4 °C | 1 °C | 0.5 °C | -0.1 °C | 0 °C | 0.3 °C | 1.4 °C | 1.2 °C | 1.2 °C | 0.5 °C | -0.2 °C |
